Test results reported in PubChem BioAssay AID449725 (University of Pittsburgh Molecular Library Screening Center, 2010).
Activity calls are given as the source filed them. The rule behind the calls is not given here.

Tested on: IMR-90 human lung fibroblast viability counter screen
Assay: IMR-90 fibroblast viability reduction, dose response, cytotoxicity control, cell-based, IC50 (AID 449725);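 note: 48 hour compound exposure before the viability read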

Structure (SMILES) | IC50
COc1ccc(C(=O)Nc2cc(Cl)ccc2C(=O)O)cc1OC | > 25 µM (inactive)
O=c1c(O)c(-c2ccc(O)c(O)c2)oc2cc(O)cc(O)c12 | > 25 µM (inactive)
O=C(Nc1cc(Cl)ccc1C(=O)O)c1ccoc1 | > 25 µM (inactive)
COc1ccc(-n2sc3ccccc3c2=O)cc1 | 5.54 µM
O=c1c2cc(F)ccc2sn1-c1ccc(Cl)cc1 | > 25 µM (inactive)
Cc1ccccc1N1Cc2ccccc2C1=O | > 25 µM (inactive)
COc1ccc(C(=O)Nc2cc(I)ccc2C(=O)O)cc1 | > 25 µM (inactive)
N#Cc1ccc2sn(-c3ccccc3)c(=O)c2c1 | > 25 µM (inactive)
COc1ccc(C(=O)Nc2ccccc2-c2nn[nH]n2)cc1 | > 25 µM (inactive)
COc1ccc(-c2cc3ccccc3[nH]2)cc1 | > 25 µM (inactive)
O=C(Nc1cc(Cl)ccc1C(=O)O)c1ccc(C2CCC2)cc1 | > 25 µM (inactive)
COc1ccc(C(=O)Nc2cc(Cl)ccc2C(=O)O)cc1 | > 25 µM (inactive)
COc1ccc(C(=O)Nc2cc(Cl)ccc2-c2noc(=O)[nH]2)cc1 | > 25 µM (inactive)
COC(=O)c1ccc(Cl)cc1NC(=O)c1ccc(OC)cc1 | > 25 µM (inactive)
COc1ccc(NC(=O)c2ccccc2C(=O)O)cc1 | > 25 µM (inactive)
COc1ccc(C(=O)Nc2cc(F)cc(F)c2O)cc1 | > 25 µM (inactive)
CC(C)Cc1ccc(C(=O)Nc2cc(Cl)ccc2C(=O)O)cc1 | > 25 µM (inactive)
N#Cc1ccc(Oc2ccc3c(c2)B(O)OC3)cc1 | > 25 µM (inactive)
CN(C)c1ccc(C(=O)Nc2cc(Cl)ccc2C(=O)O)cc1 | > 25 µM (inactive)
COc1ccc(C(=O)Nc2cc(Cl)ccc2O)cc1 | > 25 µM (inactive)
O=C(Nc1cc(Cl)ccc1C(=O)O)c1ccc(-c2cccs2)cc1 | > 25 µM (inactive)
COc1cc(C(=O)Nc2cc(Cl)ccc2C(=O)O)cc(OC)c1OC | > 25 µM (inactive)
O=C1CCN(C(=O)Nc2cc(Cl)ccc2C(=O)O)CC1 | > 25 µM (inactive)
O=C(Cn1sc2ccccc2c1=O)Nc1ccccc1F | > 25 µM (inactive)

Structure (SMILES) | IC50
O=C(Nc1cc(Cl)ccc1C(=O)O)c1ccsc1 | > 25 µM (inactive)
CCCCCCCC(=O)Nc1cc(Cl)ccc1C(=O)O | > 25 µM (inactive)
CC(C)(C)c1ccc(C(=O)N2CCC(=O)c3ccc(Cl)cc32)cc1 | > 25 µM (inactive)
COc1ccc(NC(=O)c2ccccc2SCc2ccccc2)cc1 | > 25 µM (inactive)
O=C(Nc1cc(Cl)ccc1C(=O)O)c1ccc(OC(F)(F)F)cc1 | > 25 µM (inactive)
O=C1c2cccc(Br)c2SCN1c1ccccc1 | > 25 µM (inactive)
COc1ccc(C(=O)Nc2cc(Br)ccc2C(=O)O)cc1 | > 25 µM (inactive)
COc1ccc(NC(=O)Cn2sc3ccccc3c2=O)cc1 | 6.49 µM
CC(C(=O)Nc1ccccc1)n1sc2ccccc2c1=O (stereo unspecified) | 16.3 µM
COc1ccc(C(=O)Nc2c(C(=O)O)ccc(Cl)c2Cl)cc1 | > 25 µM (inactive)
COc1ccc(C(=O)N2CCC(=O)c3ccc(Cl)cc32)cc1 | > 25 µM (inactive)
O=C(Cn1sc2ccccc2c1=O)Nc1cccc(F)c1 | > 25 µM (inactive)
COc1ccc2c(c1)CN(c1cc(Cl)ccc1C(=O)O)C2=O | > 25 µM (inactive)
O=c1c2ccc(F)cc2sn1-c1ccccc1 | 7.17 µM
O=C(Cn1sc2ccccc2c1=O)Nc1ccccc1C(F)(F)F | > 25 µM (inactive)
O=C(Nc1cc(Cl)ccc1C(=O)O)c1ccc2c(c1)CCCC2 | > 25 µM (inactive)
Cc1cc(C(C#N)c2ccc(Cl)cc2)c(Cl)cc1NC(=O)c1cc(I)cc(I)c1O (stereo unspecified) | > 25 µM (inactive)
CC(=O)Nc1cc(Cl)ccc1C(=O)O | > 25 µM (inactive)
O=C(Cn1sc2ccccc2c1=O)Nc1ccccc1Br | > 25 µM (inactive)
COc1cccc(-n2sc3ccccc3c2=O)c1 | 6.34 µM
O=c1c(Br)csn1-c1ccc(Br)cc1 | > 25 µM (inactive)
COc1ccc(C(=O)Nc2cc(Cl)c(Br)cc2C(=O)O)cc1 | > 25 µM (inactive)
O=c1c2cc(F)c(F)cc2sn1-c1ccccc1 | > 25 µM (inactive)
O=C(NCc1ccccc1)n1sc2ccccc2c1=O | > 25 µM (inactive)

Structure (SMILES) | IC50
COc1ccc(C(=O)N(C)c2cc(Cl)ccc2C(=O)O)cc1 | > 25 µM (inactive)
COc1ccc(C(=O)Nc2cc(Cl)ccc2-c2nn[nH]n2)cc1 | > 25 µM (inactive)
Cc1ccc(C(=O)Nc2cc(Cl)ccc2C(=O)O)cc1C | > 25 µM (inactive)
COc1ccc(C(=O)NC(CC(=O)O)c2ccc(Cl)cc2)cc1 (stereo unspecified) | > 25 µM (inactive)
O=C(Nc1cc(Cl)ccc1C(=O)O)c1ccncc1 | > 25 µM (inactive)
CCc1ccc(C(=O)Nc2cc(Cl)ccc2C(=O)OC)cc1 | > 25 µM (inactive)
COc1ccc2sn(-c3ccccc3)c(=O)c2c1 | > 25 µM (inactive)
COc1ccc(Nc2cc(Cl)ccc2C(=O)O)cc1 | > 25 µM (inactive)
CCc1ccc(C(=O)Nc2cc(Cl)ccc2C(=O)O)cc1 | > 25 µM (inactive)
COc1ccc(C(=O)Nc2cc(C)ccc2C(=O)O)cc1 | > 25 µM (inactive)
O=c1c2cc(N3CCOCC3)ccc2sn1-c1ccccc1 | 20.9 µM
CCOC(=O)Cn1sc2ccccc2c1=O | 6.35 µM
O=C(CCn1sc2ccccc2c1=O)Nc1ccccc1 | 9.92 µM
O=C(Cn1sc2ccccc2c1=O)Nc1cccc(C(F)(F)F)c1 | > 25 µM (inactive)
N#Cc1ccc2c(=O)n(-c3ccccc3)sc2c1 | > 25 µM (inactive)
COc1ccc(C(=O)O)c(NC(=O)c2ccc(Cl)cc2)c1 | > 25 µM (inactive)
COc1ccc(C(=O)Nc2cc(Cl)ccc2C(N)=O)cc1 | > 25 µM (inactive)
O=C(Nc1cc(Cl)ccc1C(=O)O)c1ccc(Cc2ccccc2)cc1 | > 25 µM (inactive)
O=C1c2ccccc2S(=O)N1c1ccc(Cl)cc1 (stereo unspecified) | > 25 µM (inactive)
COc1cccc(CC(=O)Nc2cc(Cl)ccc2C(=O)O)c1 | > 25 µM (inactive)
Cc1ccc(-n2sc3ccccc3c2=O)cc1 | 18.3 µM
CN(C)c1cccc(NC(=O)Cn2sc3ccccc3c2=O)c1 | > 25 µM (inactive)
O=c1c2ccccc2on1-c1ccccc1 | > 25 µM (inactive)
O=c1c2ccccc2sn1-c1ccccc1F | 5.4 µM

Structure (SMILES) | IC50
Cc1ccccc1-n1sc2cc(F)ccc2c1=O | 5.6 µM
CC(C)c1ccc(C(=O)Nc2cc(Cl)ccc2C(=O)O)cc1 | > 25 µM (inactive)
Cn1sc(=O)c2ccccc21 | 18 µM
CC(C)(C)c1ccc(C(=O)Nc2cc(Cl)ccc2-c2nn[nH]n2)cc1 | > 25 µM (inactive)
COc1cccc(NC(=O)Cn2sc3ccccc3c2=O)c1 | 8.77 µM
O=C(Cn1sc2ccccc2c1=O)Nc1ccccc1Cl | > 25 µM (inactive)
O=c1c2ccccc2sn1-c1cccc(Cl)c1 | > 25 µM (inactive)
O=C(O)c1ccc(Cl)cc1NC(=O)C1CCOCC1 | > 25 µM (inactive)
O=C(Nc1cc(Cl)ccc1C(=O)O)c1ccc(C(F)(F)F)cc1 | > 25 µM (inactive)
Cc1ccc(-n2sc3cc(F)ccc3c2=O)c(C)c1 | 6.4 µM
O=C(Cn1sc2ccccc2c1=O)Nc1ccc(F)cc1 | 6.87 µM
CC(C)(C)c1ccc(C(=O)Nc2cc(Cl)c(Cl)cc2C(=O)O)cc1 | > 25 µM (inactive)
N#Cc1ccccc1NC(=O)Cn1sc2ccccc2c1=O | > 25 µM (inactive)
CN(Cc1ccccc1)C(=O)Cn1sc2ccccc2c1=O | 15.2 µM
O=C(Nc1cc(Cl)ccc1C(=O)O)c1cocn1 | > 25 µM (inactive)
Cc1ccc(NC(=O)Cn2sc3ccccc3c2=O)cc1 | 11 µM
O=C1c2cc(Br)ccc2S(=O)N1c1ccccc1 (stereo unspecified) | > 25 µM (inactive)
O=C(Cn1sc2ccccc2c1=O)Nc1ccccc1I | > 25 µM (inactive)
O=C(Nc1cc(Cl)ccc1C(=O)O)c1ccc(-c2ccccc2)cc1 | > 25 µM (inactive)
COc1ccc(C(=O)NC(C(=O)O)c2ccccc2)cc1 (stereo unspecified) | > 25 µM (inactive)
COc1ccc(C(=O)Nc2cccc(Cl)c2)cc1 | > 25 µM (inactive)
COc1ccc(C(=O)NC(CC(=O)O)c2ccccc2)cc1 (stereo unspecified) | > 25 µM (inactive)
O=C(Cn1sc2ccccc2c1=O)Nc1ccc(I)cc1 | > 25 µM (inactive)
O=C(Cn1sc2ccccc2c1=O)Nc1ccc(Br)cc1 | > 25 µM (inactive)

Structure (SMILES) | IC50
COc1ccc(C(=O)Nc2cc(C(=O)O)ccc2Cl)cc1 | > 25 µM (inactive)
COc1ccccc1NC(=O)Cn1sc2ccccc2c1=O | 12.3 µM
CC(C)(C)c1ccc(C(=O)Nc2c(C(=O)O)ccc(Cl)c2Cl)cc1 | > 25 µM (inactive)
O=c1c2ccccc2sn1-c1ccc(Cl)cc1Cl | > 25 µM (inactive)
COc1ccc(CC(=O)Nc2cc(Cl)ccc2C(=O)O)cc1 | > 25 µM (inactive)
O=C(Nc1cc(Cl)ccc1C(=O)O)c1ccc(C2CC2)cc1 | > 25 µM (inactive)
COc1ccc(C(=O)NCC(=O)O)cc1 | > 25 µM (inactive)
COc1ccc(C(=O)Nc2cc(-c3ccccc3)ccc2C(=O)O)cc1 | > 25 µM (inactive)
O=C(Nc1cc(Cl)ccc1C(=O)O)c1ccccc1 | > 25 µM (inactive)
COc1ccc(C(=O)Nc2ccccc2C(=O)O)cc1Cl | > 25 µM (inactive)
O=C1c2ccccc2S(=O)N1c1cccc(F)c1 (stereo unspecified) | > 25 µM (inactive)
COc1ccc(C(=O)Nc2ccc(Cl)cc2C(=O)O)cc1 | > 25 µM (inactive)
COc1ccc(NC(=O)Nc2ccccc2C(=O)O)cc1 | > 25 µM (inactive)
O=C(Cn1sc2ccccc2c1=O)Nc1ccccc1 | 6.93 µM
COC(=O)c1cc(Cl)ccc1NC(=O)c1ccc(OC)cc1 | > 25 µM (inactive)
CC(C)(C)c1ccc(C(=O)Nc2cc(Br)ccc2C(=O)O)cc1 | > 25 µM (inactive)
Cn1c2ccccc2c(=O)n1-c1ccccc1 | > 25 µM (inactive)
O=c1c2cc([N+](=O)[O-])ccc2sn1-c1ccccc1 | 10.2 µM
O=C(Nc1cc(Cl)ccc1C(=O)O)c1ccc(Cl)cc1 | > 25 µM (inactive)
CC(C)(C)c1ccc(C(=O)Nc2cc(Cl)ccc2C(=O)O)cc1 | > 25 µM (inactive)
